Measurements from US20240360194A1, “New Peptides as Potent and Selective GIP Receptor Agonists” (Sanofi, priority 2021, published 2024).
Converted amounts (≈) assume the structure as drawn. Numbered stars: 1 amine (or outer) side, 2 acyl side, 3 side chain; on linkers, the order of the positions; unused ones are H or OH. Square brackets hold non-standard residues; d marks the D form. Side chains are listed from the residue outwards. Peptide text beside a SMILES is read from it. * marks the point of attachment. C18 diacid = O=C(O)CCCCCCCCCCCCCCCCC(=O)*; γGlu = O=C(O)[C@H](CCC(=O)[*:2])N[*:1]; dIva = CC[C@@](C)(N)C(=O)O; AEEA = NCCOCCOCC(=O)O; Aib = CC(C)(N)C(=O)O

Assays:
[1] = Solubility assessment (UHPLC-UV of supernatant, target 10 mg/ml); type: physicochemical; settings: for Soluble amount: pH 7.4
Summary of the method: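 Peptides at 10 mg/ml (purity-corrected) in 100 mM phosphate pH 7.4, optionally with 2.7 mg/ml m-cresol; gentle agitation 1 h, then 5° C. overnight (24 h). Supernatant after 15 min centrifugation at 2500 RCF quantified by UHPLC-UV, with sequence-based extinction coefficients.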

[2] = target: T1, human GLP-1 receptor (hGLP-1R) (Homo sapiens, UniProt P43220); experiment: In vitro cellular cAMP assay for GLP-1 receptor efficacy (HEK-293 cell line over-expressing receptor); type: cell-based; settings: HEK-293, 0.1% BSA
[3] = target: T2, human GIP receptor (hGIPR) (Homo sapiens, UniProt P48546); experiment: In vitro cellular cAMP assay for GIP receptor efficacy (HEK-293 cell line over-expressing receptor); type: cell-based; settings: EC50 hGIPR 0.1% BSA, HEK-293, 0.1% BSA
T2 sequence (P48546 22-466): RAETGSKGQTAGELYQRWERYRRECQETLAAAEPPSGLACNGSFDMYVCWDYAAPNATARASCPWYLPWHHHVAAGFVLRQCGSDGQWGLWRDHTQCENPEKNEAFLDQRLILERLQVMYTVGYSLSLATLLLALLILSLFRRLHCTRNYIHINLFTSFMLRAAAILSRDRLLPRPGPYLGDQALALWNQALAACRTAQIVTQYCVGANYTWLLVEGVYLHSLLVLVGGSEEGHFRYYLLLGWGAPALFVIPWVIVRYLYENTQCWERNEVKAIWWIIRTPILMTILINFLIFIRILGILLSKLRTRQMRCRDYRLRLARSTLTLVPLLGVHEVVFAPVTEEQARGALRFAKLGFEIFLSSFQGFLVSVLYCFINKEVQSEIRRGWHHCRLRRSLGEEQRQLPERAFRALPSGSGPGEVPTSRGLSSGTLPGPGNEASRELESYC

[4] = target: T1, human GLP-1 receptor (hGLP-1R); experiment: Binding assay, displacement of [125I]GLP-1 from HEK-293 membranes over-expressing GLP-1R (SPA); settings: [125I]GLP-1 displacement
Summary of the method: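 Membranes from HEK-293 cells over-expressing human GIPR or GLP-1R, isolated by homogenising, sonicating and ultracentrifuging at 100000×g into HEPES/EDTA/NaCl buffer with protease inhibitors, were used for binding.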

[5] = Pharmacokinetic evaluation in rats; type: in vivo; settings: male, SD, rat, in vivo
Experimental: Compounds were administered in a suitable buffer system, e.g. PBS buffer solution at pH7.4 or DPBS solution at concentrations of 0.05, 0.1, 0.5 or 1 mg/ml depending on dose, species and administration volume. Male SD rats were dosed 0.25 mg/kg, 0.5 mg/kg or 1 mg/kg intravenously (i.v.) or subcutaneously (s.c.). Blood samples were collected after 0.08, 0.25, 0.5, 1, 2, 4, 8, 24, 32, and 48 h post i.v. application and 0.25, 0.5, 1, 2, 4, 8, 24, 32, and 48 h post s.c. application, respectively. Plasma samples were analysed after protein precipitation via liquid chromatography mass spectrometry (LC/MS). PK parameters and half-life were calculated using Phoenix-WinNonlin 8.1 using a non-compartmental model and linear trapezoidal interpolation calculation. Pharmacokinetic profiles were determined as described in Methods.

[6] = Chemical stability assessment (UHPLC-UV purity loss on storage in solution); type: physicochemical; settings: Chemical stability buffer system A: 20 mM phosphate buffer pH 7.4; ~300 μM
Experimental: Purity of a peptide batch was determined through UHPLC/MS prior to chemical stability measurement. The target concentration was 300 μM pure compound. Solutions from solid samples were prepared in the following buffer systems with a concentration of ˜300 μM compound based on the previously determined % purity: • Chemical stability buffer system A) 20 mM phosphate buffer pH 7.4, • Chemical stability buffer system B) 8 mM phosphate buffer pH 7.4, 14 mg/ml propylene glycol, 5.5 mg/ml phenol • Chemical stability buffer system C) 100 mM phosphate buffer pH 7.4, 2.7 mg/ml m-cresol
Prepared solutions were filtered through […] pore size and filled into sterilized glass containers under laminar flow conditions.
Glass containers were stored for 28 days at 5 and 40° C. After this time, the samples were centrifuged for 15 min at 2500 RCF. Then 1.5 μl of the undiluted supernatant were analysed with UHPLC-UV.
The chemical stability was rated through the relative loss of purity calculated by the equation: […]
The purity is calculated as
The analytical methods used were Analytical UHPLC Method B or C.
Peptide samples were prepared in Chemical stability buffer system A or B and stability was assessed as described in Methods.

T1 sequence (P43220 24-463): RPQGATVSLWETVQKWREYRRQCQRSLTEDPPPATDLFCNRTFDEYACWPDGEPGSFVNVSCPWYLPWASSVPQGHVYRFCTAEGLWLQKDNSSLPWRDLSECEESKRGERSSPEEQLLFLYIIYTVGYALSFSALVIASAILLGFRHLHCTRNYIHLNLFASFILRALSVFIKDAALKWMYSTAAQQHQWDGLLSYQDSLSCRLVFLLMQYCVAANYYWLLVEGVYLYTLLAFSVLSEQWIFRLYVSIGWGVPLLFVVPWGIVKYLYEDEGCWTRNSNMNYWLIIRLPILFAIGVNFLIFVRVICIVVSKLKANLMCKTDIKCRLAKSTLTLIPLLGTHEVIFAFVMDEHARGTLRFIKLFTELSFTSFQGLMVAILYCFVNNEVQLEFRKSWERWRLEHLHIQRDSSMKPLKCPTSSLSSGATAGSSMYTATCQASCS

EC50 [3] [nM] | IC50 [4] [nM] | Structure (SMILES) | solubility ([1]; pH 7.4, Soluble amount) [µg/mL] | EC50 [2] [nM] | AUC(0-t) ([5]; iv, 0.25 mg/kg) [ng·h/mL] | Cmax ([5]; iv, 0.25 mg/kg) [ng/mL] | clearance ([5]; iv, 0.25 mg/kg) [mL/h/kg] | half-life ([5]; iv, 0.25 mg/kg) [h] | AUC(0-t) ([5]; sc, 0.5 mg/kg) [ng·h/mL] | Cmax ([5]; sc, 0.5 mg/kg) [ng/mL] | bioavailability ([5]; sc, 0.5 mg/kg) [%] | half-life ([5]; sc, 0.5 mg/kg) [h] | Soluble amount ([1]; 24 h) [mg/mL] | solubility at 24 h ([1]; pH 7.4, Soluble amount) [µg/mL] | Relative purity loss over 28 days at 40° C. [6] [%] | Soluble amount [1] [mg/mL]
0.0243 | 174 | CC[C@H](C)[C@H](NC(=O)[C@H](CCCNC(=N)N)NC(=O)[C@H](CC(=O)O)NC(=O)[C@H](CCCCNC(=O)COCCOCCNC(=O)COCCOCCNC(=O)CC[C@H](NC(=O)CCCCCCCCCCCCCCCCC(=O)O)C(=O)O)NC(=O)C(C)(C)NC(=O)[C@@H](NC(=O)[C@H](CO)NC(=O)[C@H](CC(C)C)NC(=O)[C@H](CC(=O)O)NC(=O)[C@H](CO)NC(=O)[C@@H](NC(=O)[C@@](C)(CC)NC(=O)[C@@H](NC(=O)CNC(=O)[C@H](CCC(=O)O)NC(=O)C(C)(C)NC(=O)[C@@H](N)Cc1ccc(O)cc1)[C@@H](C)O)[C@@H](C)CC)[C@@H](C)CC)C(=O)N[C@@H](Cc1c[nH]cn1)C(=O)N[C@@H](CCC(N)=O)C(=O)NC(C)(C)C(=O)N[C@@H](CCC(=O)O)C(=O)N[C@@H](Cc1ccccc1)C(=O)N[C@H](C(=O)N[C@@H](CCC(=O)O)C(=O)N[C@@H](Cc1c[nH]c2ccccc12)C(=O)N[C@@H](CC(C)C)C(=O)N[C@@H](CC(C)C)C(=O)N[C@@H](C)C(=O)N[C@@H](CCC(N)=O)C(=O)N[C@@H](CCCNC(=N)N)C(=O)NCC(N)=O)[C@@H](C)CC [SEQ ID NO: 16, H2N-Y-Aib-E-G-T-Iva-I-S-D-L-S-I-Aib-K[{AEEA}2-gGlu-C18OH]-D-R-I-H-Q-Aib-E-F-I-E-W-L-L-A-Q-R-G-NH2] | 5400 (≈ 1260 µM) | > 10 | 41500 | 7050 | 5.74 | 11.5 | 43900 | 1720 | 55 | 10.8 | – | – | – | –
– | – | CC[C@H](C)[C@H](NC(=O)[C@H](CCCNC(=N)N)NC(=O)[C@H](CCC(=O)O)NC(=O)[C@H](CCCCNC(=O)COCCOCCNC(=O)COCCOCCNC(=O)CC[C@H](NC(=O)CCCCCCCCCCCCCCCCC(=O)O)C(=O)O)NC(=O)C(C)(C)NC(=O)[C@@H](NC(=O)[C@H](CO)NC(=O)[C@H](CC(C)C)NC(=O)[C@H](CC(=O)O)NC(=O)[C@H](CO)NC(=O)[C@@H](NC(=O)[C@H](Cc1ccccc1)NC(=O)[C@@H](NC(=O)CNC(=O)[C@H](CCC(=O)O)NC(=O)C(C)(C)NC(=O)[C@@H](N)Cc1ccc(O)cc1)[C@@H](C)O)[C@@H](C)CC)[C@@H](C)CC)C(=O)N[C@@H](Cc1c[nH]cn1)C(=O)N[C@@H](CCC(N)=O)C(=O)NC(C)(C)C(=O)N[C@@H](CCC(=O)O)C(=O)N[C@@H](Cc1ccccc1)C(=O)N[C@H](C(=O)N[C@@H](CCC(=O)O)C(=O)N[C@@H](Cc1c[nH]c2ccccc12)C(=O)N[C@@H](CC(C)C)C(=O)N[C@@H](CC(C)C)C(=O)N[C@@H](C)C(=O)N[C@@H](CCC(N)=O)C(=O)NCC(=O)N1CCC[C@H]1C(=O)N[C@@H](CO)C(=O)N[C@@H](CO)C(=O)NCC(=O)N[C@@H](C)C(=O)N1CCC[C@H]1C(=O)N1CCC[C@H]1C(=O)N1CCC[C@H]1C(=O)N[C@@H](CO)C(N)=O)[C@@H](C)CC [SEQ ID NO: 21, H2N-Y-Aib-E-G-T-F-I-S-D-L-S-I-Aib-K[{AEEA}2-gGlu-C18OH]-E-R-I-H-Q-Aib-E-F-I-E-W-L-L-A-Q-G-P-S-S-G-A-P-P-P-S-NH2] (H-Y[Aib]EGTFISDLSI[Aib]K([AEEA-AEEA-γGlu-C18 diacid])ERIHQ[Aib]EFIEWLLAQGPSSGAPPPS-NH2) | – | > 10 | 25800 | 1020 | 9.04 | 12.9 | 33900 | 1020 | 68 | 12.1 | >10.0 | 10100 (≈ 2030 µM) | – | –
– | – | CC[C@H](C)[C@H](NC(=O)[C@H](Cc1ccccc1)NC(=O)[C@H](CCC(=O)O)NC(=O)C(C)(C)NC(=O)[C@H](CCC(N)=O)NC(=O)[C@H](Cc1c[nH]cn1)NC(=O)C(C)(C)NC(=O)[C@H](CCCNC(=N)N)NC(=O)[C@H](CC(=O)O)NC(=O)[C@H](CCCCNC(=O)COCCOCCNC(=O)COCCOCCNC(=O)CC[C@H](NC(=O)CCCCCCCCCCCCCCCCC(=O)O)C(=O)O)NC(=O)C(C)(C)NC(=O)[C@@H](NC(=O)[C@H](CO)NC(=O)[C@H](CC(C)C)NC(=O)[C@H](CC(=O)O)NC(=O)[C@H](CO)NC(=O)[C@@H](NC(=O)[C@H](Cc1ccccc1)NC(=O)[C@@H](NC(=O)CNC(=O)[C@H](CCC(=O)O)NC(=O)C(C)(C)NC(=O)[C@@H](N)Cc1ccc(O)cc1)[C@@H](C)O)[C@@H](C)CC)[C@@H](C)CC)C(=O)N[C@@H](CCC(=O)O)C(=O)N[C@@H](Cc1c[nH]c2ccccc12)C(=O)N[C@@H](CC(C)C)C(=O)N[C@@H](CC(C)C)C(=O)N[C@@H](C)C(=O)N[C@@H](CCC(N)=O)C(=O)N[C@@H](CCCNC(=N)N)C(=O)N1CCC[C@H]1C(=O)N[C@@H](CO)C(=O)N[C@@H](CO)C(=O)NCC(=O)N[C@@H](C)C(=O)N1CCC[C@H]1C(=O)N1CCC[C@H]1C(=O)N1CCC[C@H]1C(=O)N[C@@H](CO)C(N)=O [SEQ ID NO: 22, H2N-Y-Aib-E-G-T-F-I-S-D-L-S-I-Aib-K[{AEEA}2-gGlu-C18OH]-D-R-Aib-H-Q-Aib-E-F-I-E-W-L-L-A-Q-R-P-S-S-G-A-P-P-P-S-NH2] (H-Y[Aib]EGTFISDLSI[Aib]K([AEEA-AEEA-γGlu-C18 diacid])DR[Aib]HQ[Aib]EFIEWLLAQRPSSGAPPPS-NH2) | – | > 10 | 40200 | 6030 | 5.73 | 13.6 | 49900 | 1320 | 69 | 15.5 | – | – | 6.1 | –
– | – | CC[C@H](C)[C@H](NC(=O)[C@H](CCCNC(=N)N)NC(=O)[C@H](CC(=O)O)NC(=O)[C@H](CCCCNC(=O)COCCOCCNC(=O)COCCOCCNC(=O)CC[C@H](NC(=O)CCCCCCCCCCCCCCCCC(=O)O)C(=O)O)NC(=O)C(C)(C)NC(=O)[C@@H](NC(=O)[C@H](CO)NC(=O)[C@H](CC(C)C)NC(=O)[C@H](CC(=O)O)NC(=O)[C@H](CO)NC(=O)[C@@H](NC(=O)[C@H](Cc1ccccc1)NC(=O)[C@@H](NC(=O)CNC(=O)[C@H](CCC(=O)O)NC(=O)C(C)(C)NC(=O)[C@@H](N)Cc1ccc(O)cc1)[C@@H](C)O)[C@@H](C)CC)[C@@H](C)CC)C(=O)N[C@@H](Cc1c[nH]cn1)C(=O)N[C@@H](CCC(N)=O)C(=O)NC(C)(C)C(=O)N[C@@H](CCC(=O)O)C(=O)N[C@@H](Cc1ccccc1)C(=O)N[C@H](C(=O)N[C@@H](CCC(=O)O)C(=O)N[C@@H](Cc1c[nH]c2ccccc12)C(=O)N[C@](C)(CC)C(=O)N[C@@H](CC(C)C)C(=O)N[C@@H](C)C(=O)N[C@@H](CCC(N)=O)C(=O)NCC(=O)N1CCC[C@H]1C(=O)N[C@@H](CO)C(=O)N[C@@H](CO)C(=O)NCC(=O)N[C@@H](C)C(=O)N1CCC[C@H]1C(=O)N1CCC[C@H]1C(=O)N1CCC[C@H]1C(=O)N[C@@H](CO)C(N)=O)[C@@H](C)CC [SEQ ID NO: 31, H2N-Y-Aib-E-G-T-F-I-S-D-L-S-I-Aib-K[{AEEA}2-gGlu-C18OH]-D-R-I-H-Q-Aib-E-F-I-E-W-Iva-L-A-Q-G-P-S-S-G-A-P-P-P-S-NH2] (H-Y[Aib]EGTFISDLSI[Aib]K([AEEA-AEEA-γGlu-C18 diacid])DRIHQ[Aib]EFIEW[dIva]LAQGPSSGAPPPS-NH2) | > 10000 | > 10 | – | – | – | – | – | – | – | – | – | – | 6.2 | 9.6
